Measured values taken from PubChem BioAssay AID1745844 (Carcinogenic Potency Database (CPDB), 2022).
Values joined by “and” are separate entries in the source; they are usually repeats but may differ in a detail not shown here. Equal values may be shown once. Active and inactive are the calls of the source. How the calls were made is not given here.

Tested on: rodent lifetime carcinogenesis bioassay, tumor incidence TD50
Assay: carcinogenic potency in animals, long-term in vivo studies, CPDB compilation (AID 1745844)

Compound `O=P(O)(OCC(Br)CBr)OCC(Br)CBr` (centres undefined) has a TD50 (rat, strain Wistar, females, in feed, site: esophagus, lesion: squamous-cell papilloma, dosed 78 weeks, study length 78 weeks) of 107 mg/kg/day, a TD50 (rat, strain Wistar, females, in feed, site: esophagus, lesion: squamous-cell papilloma, dosed 96 weeks, study length 101 weeks) of 394 mg/kg/day and a TD50 (rat, strain Wistar, females, in feed, site: forestomach, lesion: several types, types named in the paper, dosed 78 weeks, study length 78 weeks) of 19.6 mg/kg/day. It also gave a TD50 (rat, strain Wistar, females, in feed, site: forestomach, lesion: several types, types named in the paper, dosed 96 weeks, study length 101 weeks) of 40 mg/kg/day, a TD50 (rat, strain Wistar, females, in feed, site: forestomach, lesion: squamous-cell carcinoma, dosed 78 weeks, study length 78 weeks) of 171 mg/kg/day and a TD50 (rat, strain Wistar, females, in feed, site: forestomach, lesion: squamous-cell carcinoma, dosed 96 weeks, study length 101 weeks) of 301 mg/kg/day. For the same compound, the TD50 (rat, strain Wistar, females, in feed, site: forestomach, lesion: squamous-cell papilloma, dosed 52 weeks, study length 52 weeks) was 47.6 mg/kg/day, the TD50 (rat, strain Wistar, females, in feed, site: forestomach, lesion: squamous-cell papilloma, dosed 78 weeks, study length 78 weeks) was 34.5 mg/kg/day and the TD50 (rat, strain Wistar, females, in feed, site: forestomach, lesion: squamous-cell papilloma, dosed 96 weeks, study length 101 weeks) was 60.3 mg/kg/day. The TD50 (rat, strain Wistar, females, in feed, site: kidney, lesion: renal-cell adenoma, dosed 96 weeks, study length 101 weeks) was 1250 mg/kg/day, the TD50 (rat, strain Wistar, females, in feed, site: kidney, lesion: renal-cell carcinoma, dosed 96 weeks, study length 101 weeks) was 1250 mg/kg/day and the TD50 (rat, strain Wistar, females, in feed, site: kidney, lesion: several types, types named in the paper, dosed 96 weeks, study length 101 weeks) was 608 mg/kg/day. The TD50 (rat, strain Wistar, females, in feed, site: liver, lesion: hepatocellular adenoma, dosed 52 weeks, study length 52 weeks) was 33.2 mg/kg/day, the TD50 (rat, strain Wistar, females, in feed, site: liver, lesion: hepatocellular adenoma, dosed 78 weeks, study length 78 weeks) was 20.6 mg/kg/day and the TD50 (rat, strain Wistar, females, in feed, site: liver, lesion: hepatocellular carcinoma, dosed 52 weeks, study length 52 weeks) was 35.1 mg/kg/day. For the same compound, the TD50 (rat, strain Wistar, females, in feed, site: liver, lesion: hepatocellular carcinoma, dosed 78 weeks, study length 78 weeks) was 20.1 mg/kg/day, the TD50 (rat, strain Wistar, females, in feed, site: liver, lesion: hepatocellular carcinoma, dosed 96 weeks, study length 101 weeks) was 37.1 mg/kg/day and the TD50 (rat, strain Wistar, females, in feed, site: liver, lesion: several types, types named in the paper, dosed 52 weeks, study length 52 weeks) was 11.8 mg/kg/day. For the same compound, the TD50 (rat, strain Wistar, females, in feed, site: liver, lesion: several types, types named in the paper, dosed 78 weeks, study length 78 weeks) was 11.9 mg/kg/day, the TD50 (rat, strain Wistar, females, in feed, site: liver, lesion: several types, types named in the paper, dosed 96 weeks, study length 101 weeks) was 27.8 mg/kg/day and the TD50 (rat, strain Wistar, females, in feed, site: small intestine, lesion: adenocarcinoma, dosed 78 weeks, study length 78 weeks) was 107 mg/kg/day. For the same compound, the TD50 (rat, strain Wistar, females, in feed, site: small intestine, lesion: adenocarcinoma, dosed 96 weeks, study length 101 weeks) was 179 mg/kg/day, the TD50 (rat, strain Wistar, females, in feed, site: tongue, lesion: several types, types named in the paper, dosed 96 weeks, study length 101 weeks) was 301 mg/kg/day and the TD50 (rat, strain Wistar, females, in feed, site: tongue, lesion: squamous-cell papilloma, dosed 78 weeks, study length 78 weeks) was 107 mg/kg/day. The TD50 (rat, strain Wistar, females, in feed, site: tongue, lesion: squamous-cell papilloma, dosed 96 weeks, study length 101 weeks) was 403 mg/kg/day, the TD50 (rat, strain Wistar, males, in feed, site: esophagus, lesion: several types, types named in the paper, dosed 90 weeks, study length 102 weeks) was 45.1 mg/kg/day and the TD50 (rat, strain Wistar, males, in feed, site: esophagus, lesion: squamous-cell papilloma, dosed 78 weeks, study length 78 weeks) was 16.5 mg/kg/day. For the same compound, the TD50 (rat, strain Wistar, males, in feed, site: esophagus, lesion: squamous-cell papilloma, dosed 90 weeks, study length 102 weeks) was 62.1 mg/kg/day, the TD50 (rat, strain Wistar, males, in feed, site: forestomach, lesion: several types, types named in the paper, dosed 52 weeks, study length 52 weeks) was 38.1 mg/kg/day and the TD50 (rat, strain Wistar, males, in feed, site: forestomach, lesion: several types, types named in the paper, dosed 90 weeks, study length 102 weeks) was 37.8 mg/kg/day. The TD50 (rat, strain Wistar, males, in feed, site: forestomach, lesion: squamous-cell carcinoma, dosed 52 weeks, study length 52 weeks) was 129 mg/kg/day, the TD50 (rat, strain Wistar, males, in feed, site: forestomach, lesion: squamous-cell carcinoma, dosed 90 weeks, study length 102 weeks) was 979 mg/kg/day and the TD50 (rat, strain Wistar, males, in feed, site: forestomach, lesion: squamous-cell papilloma, dosed 52 weeks, study length 52 weeks) was 60.9 mg/kg/day. The TD50 (rat, strain Wistar, males, in feed, site: forestomach, lesion: squamous-cell papilloma, dosed 78 weeks, study length 78 weeks) was 56.1 mg/kg/day, the TD50 (rat, strain Wistar, males, in feed, site: forestomach, lesion: squamous-cell papilloma, dosed 90 weeks, study length 102 weeks) was 43.5 mg/kg/day and the TD50 (rat, strain Wistar, males, in feed, site: kidney, lesion: renal-cell adenoma, dosed 78 weeks, study length 78 weeks) was 56.1 mg/kg/day. It also gave a TD50 (rat, strain Wistar, males, in feed, site: kidney, lesion: renal-cell adenoma, dosed 90 weeks, study length 102 weeks) of 45.1 mg/kg/day, a TD50 (rat, strain Wistar, males, in feed, site: kidney, lesion: renal-cell carcinoma, dosed 52 weeks, study length 52 weeks) of 129 mg/kg/day and a TD50 (rat, strain Wistar, males, in feed, site: kidney, lesion: several types, types named in the paper, dosed 90 weeks, study length 102 weeks) of 35 mg/kg/day. For the same compound, the TD50 (rat, strain Wistar, males, in feed, site: liver, lesion: hepatocellular adenoma, dosed 78 weeks, study length 78 weeks) was 28.3 mg/kg/day, the TD50 (rat, strain Wistar, males, in feed, site: liver, lesion: hepatocellular carcinoma, dosed 52 weeks, study length 52 weeks) was 129 mg/kg/day and the TD50 (rat, strain Wistar, males, in feed, site: liver, lesion: several types, types named in the paper, dosed 52 weeks, study length 52 weeks) was 129 mg/kg/day. The TD50 (rat, strain Wistar, males, in feed, site: small intestine, lesion: adenocarcinoma, dosed 52 weeks, study length 52 weeks) was 60.9 mg/kg/day, the TD50 (rat, strain Wistar, males, in feed, site: small intestine, lesion: adenocarcinoma, dosed 90 weeks, study length 102 weeks) was 79 mg/kg/day and the TD50 (rat, strain Wistar, males, in feed, site: small intestine, lesion: adenoma, dosed 52 weeks, study length 52 weeks) was 129 mg/kg/day. For the same compound, the TD50 (rat, strain Wistar, males, in feed, site: small intestine, lesion: several types, types named in the paper, dosed 52 weeks, study length 52 weeks) was 38.1 mg/kg/day and the TD50 (rat, strain Wistar, males, in feed, site: tongue, lesion: squamous-cell carcinoma, dosed 78 weeks, study length 78 weeks) was 56.1 mg/kg/day.

For `Nc1ccc2oc3ccccc3c2c1`, the carcinogen call (mouse, strain (C57 x IF)F1, females, in feed, site: liver, lesion: several types, types named in the paper, dosed 52 weeks, study length 58 weeks) was “positive”, the TD50 (mouse, strain (C57 x IF)F1, males, in feed, site: liver, lesion: malignant hepatoma, dosed 52 weeks, study length 67 weeks) was 8.67 mg/kg/day and the TD50 (mouse, strain (C57 x IF)F1, males, in feed, site: liver, lesion: several types, types named in the paper, dosed 52 weeks, study length 67 weeks) was 5.73 mg/kg/day. For the same compound, the TD50 (mouse, strain (C57 x IF)F1, males, in feed, site: urinary bladder, lesion: carcinoma, dosed 52 weeks, study length 67 weeks) was 22.3 mg/kg/day.

With `CNC(=O)ON=C(SC)C(=O)N(C)C` the carcinogen call (mouse, strain Charles River CD1, females, in feed, site: any site (literature study), lesion: several types, types named in the paper, dosed 104 weeks, study length 104 weeks) was “negative (inactive)”, the carcinogen call (mouse, strain Charles River CD1, males, in feed, site: any site (literature study), lesion: several types, types named in the paper, dosed 104 weeks, study length 104 weeks) was “negative (inactive)” and the carcinogen call (rat, strain Charles River CD (Sprague-Dawley), females, in feed, site: liver, lesion: hepatocellular hyperplastic nodule, dosed 104 weeks, study length 104 weeks) was “negative (inactive)”. For the same compound, the carcinogen call (rat, strain Charles River CD (Sprague-Dawley), males, in feed, site: liver, lesion: one or several types, types not named, dosed 104 weeks, study length 104 weeks) was “negative (inactive)”.

For `N[C@@H](Cc1cnc[nH]1)C(=O)O`, the carcinogen call (rat, strain F344/DuCrj, females, in feed, site: liver, lesion: hepatocellular adenoma, dosed 104 weeks, study length 107 weeks) was “negative (inactive)” and the TD50 (rat, strain F344/DuCrj, males, in feed, site: liver, lesion: hepatocellular adenoma, dosed 104 weeks, study length 107 weeks) was 52200 mg/kg/day (inactive).

`CC(I)C1OCC(CO)O1` (centres undefined) gave a TD50 (mouse, strain B6C3F1, females, by gavage, site: Harderian gland + pituitary gland, anterior, lesion: adenoma, NOS + carcinoma, NOS, dosed 103 weeks, study length 105 weeks) of 92.4 mg/kg/day, a TD50 (mouse, strain B6C3F1, females, by gavage, site: Harderian gland, lesion: adenoma, NOS + carcinoma, NOS, dosed 103 weeks, study length 105 weeks) of 263 mg/kg/day and a TD50 (mouse, strain B6C3F1, females, by gavage, site: any site (literature study), lesion: several types, types named in the paper, dosed 103 weeks, study length 105 weeks) of 172 mg/kg/day. For the same compound, the TD50 (mouse, strain B6C3F1, females, by gavage, site: forestomach, lesion: squamous-cell papilloma, dosed 103 weeks, study length 105 weeks) was 608 mg/kg/day, the TD50 (mouse, strain B6C3F1, females, by gavage, site: liver, lesion: hepatocellular adenoma + hepatocellular carcinoma + neoplastic nodule, dosed 103 weeks, study length 105 weeks) was 373 mg/kg/day and the TD50 (mouse, strain B6C3F1, females, by gavage, site: liver, lesion: hepatocellular adenoma + hepatocellular carcinoma, dosed 103 weeks, study length 105 weeks) was 373 mg/kg/day. The TD50 (mouse, strain B6C3F1, females, by gavage, site: liver, lesion: hepatocellular adenoma, dosed 103 weeks, study length 105 weeks) was 471 mg/kg/day, the TD50 (mouse, strain B6C3F1, females, by gavage, site: lung, lesion: alveolar/bronchiolar adenoma + alveolar/bronchiolar carcinoma, dosed 103 weeks, study length 105 weeks) was 2740 mg/kg/day and the TD50 (mouse, strain B6C3F1, females, by gavage, site: pituitary gland, anterior, lesion: adenoma, NOS, dosed 103 weeks, study length 105 weeks) was 138 mg/kg/day. The carcinogen call (mouse, strain B6C3F1, males, by gavage, site: any site (literature study), lesion: several types, types named in the paper, dosed 103 weeks, study length 104 weeks) was “negative (inactive)”, the TD50 (mouse, strain B6C3F1, males, by gavage, site: liver, lesion: hepatocellular adenoma + hepatocellular carcinoma + neoplastic nodule, dosed 103 weeks, study length 104 weeks) was 1100 mg/kg/day and the TD50 (mouse, strain B6C3F1, males, by gavage, site: lung, lesion: alveolar/bronchiolar adenoma + alveolar/bronchiolar carcinoma, dosed 103 weeks, study length 104 weeks) was 2410 mg/kg/day. For the same compound, the TD50 (rat, strain Fischer 344, females, by gavage, site: any site (literature study), lesion: several types, types named in the paper, dosed 103 weeks, study length 104 weeks) was 214 mg/kg/day (inactive), the TD50 (rat, strain Fischer 344, females, by gavage, site: liver, lesion: hepatocellular adenoma + hepatocellular carcinoma + neoplastic nodule, dosed 103 weeks, study length 104 weeks) was 2490 mg/kg/day and the TD50 (rat, strain Fischer 344, males, by gavage, site: any site (literature study), lesion: several types, types named in the paper, dosed 103 weeks, study length 104 weeks) was 52.1 mg/kg/day. The TD50 (rat, strain Fischer 344, males, by gavage, site: liver, lesion: hepatocellular adenoma + hepatocellular carcinoma + neoplastic nodule, dosed 103 weeks, study length 104 weeks) was 571 mg/kg/day, the TD50 (rat, strain Fischer 344, males, by gavage, site: multiple organs + thyroid gland, lesion: mononuclear-cell leukemia + follicular-cell carcinoma, dosed 103 weeks, study length 104 weeks) was 84.1 mg/kg/day and the TD50 (rat, strain Fischer 344, males, by gavage, site: multiple organs, lesion: mononuclear-cell leukemia, dosed 103 weeks, study length 104 weeks) was 101 mg/kg/day. For the same compound, the TD50 (rat, strain Fischer 344, males, by gavage, site: nasal cavity, lesion: adenoma, NOS, dosed 103 weeks, study length 104 weeks) was 1210 mg/kg/day, the TD50 (rat, strain Fischer 344, males, by gavage, site: testis, lesion: interstitial-cell tumor, dosed 103 weeks, study length 104 weeks) was 40.6 mg/kg/day and the TD50 (rat, strain Fischer 344, males, by gavage, site: thyroid gland, lesion: follicular-cell carcinoma, dosed 103 weeks, study length 104 weeks) was 280 mg/kg/day.

In the case of `CN(N=O)c1ncnc2nc[nH]c12`, the TD50 (mouse, strain Swiss CD-1, females, in drinking water, site: liver, lesion: several types, types named in the paper, dosed 104 weeks, study length 104 weeks) was 63.2 mg/kg/day, the TD50 (mouse, strain Swiss CD-1, females, in drinking water, site: mammary gland, lesion: carcinoma, dosed 104 weeks, study length 104 weeks) was 28.7 mg/kg/day and the TD50 (mouse, strain Swiss CD-1, females, in drinking water, site: reproductive tract, lesion: several types, types named in the paper, dosed 104 weeks, study length 104 weeks) was 15.8 mg/kg/day. For the same compound, the TD50 (mouse, strain Swiss CD-1, females, in drinking water, site: uterus, lesion: one or several types, types not named, dosed 104 weeks, study length 104 weeks) was 84.9 mg/kg/day, the TD50 (mouse, strain Swiss CD-1, males, in drinking water, site: liver, lesion: several types, types named in the paper, dosed 104 weeks, study length 104 weeks) was 62.6 mg/kg/day and the TD50 (mouse, strain Swiss CD-1, males, in drinking water, site: lung, lesion: one or several types, types not named, dosed 104 weeks, study length 104 weeks) was 18 mg/kg/day and 21.6 mg/kg/day.
